{"source": "patent US8067011B2", "about": "“Compositions and methods for treating B-cell malignancies” (Chimeros, Inc., priority 2006, dated 2011)", "origin": "cited, not measured here", "key": {"[1]": {"tested_on": "relapsed or refractory, low-grade or follicular, CD20-positive, B-cell non-Hodgkin's lymphoma", "conditions": "low-grade or follicular NHL"}, "[2]": {"tested_on": "diffuse large B-cell, CD20-positive, non-Hodgkin's lymphoma", "conditions": "added to CHOP or other anthracycline-based chemotherapy, first-line DLBCL"}}}
{"substance": "Rituxan: naked antibody that specifically binds to CD20, used for B cell-derived lymphomas and leukemias", "values": [{"measurement": "median duration of response, defined as progression free survival", "setting": "[1]", "result": "about 1 year"}, {"measurement": "response rate", "setting": "[1]", "result": "about 50%"}, {"measurement": "extension of progression free survival over chemotherapy alone", "setting": "[2]", "result": "about 1.5 years"}]}
